Source: US20250382266A1, “5-HT2A RECEPTOR LIGANDS” (Psilera Inc., priority 2022, published 2025)

Tests used:
Sigma 1 = Sigma 1 (Homo sapiens, UniProt Q99720); assay: radioligand binding at Sigma 1; conditions: 500 nM; radioligand [3H](+)pentazocine
Procedure: (§1) In vitro pharmacological assessment of this compound (N-(2-(1H-indol-3-yl)ethyl)-2-(1H-indol-3-yl)-N-methylethan-1-amine) was performed using radioligand binding at various serotonergic and sigma receptors. The results appear in table 2 below

5-HT7 = 5-HT7 (Homo sapiens, UniProt P34969); assay: radioligand binding at 5-HT7; conditions: 50 nM; radioligand [3H]LSD
Procedure: as §1

Sigma 2 = Sigma 2 (Homo sapiens, UniProt Q5BJF2); assay: radioligand binding at Sigma 2; conditions: 500 nM; radioligand [3H]DTG + (+)pentazocine
Procedure: as §1

5-HT2C = molecular target: T1, 5-HT2C (Homo sapiens, UniProt P28335); assay: radioligand binding at 5-HT2C; conditions: 50 nM; radioligand [3H]mesulergine
T1 sequence (P28335 33-458): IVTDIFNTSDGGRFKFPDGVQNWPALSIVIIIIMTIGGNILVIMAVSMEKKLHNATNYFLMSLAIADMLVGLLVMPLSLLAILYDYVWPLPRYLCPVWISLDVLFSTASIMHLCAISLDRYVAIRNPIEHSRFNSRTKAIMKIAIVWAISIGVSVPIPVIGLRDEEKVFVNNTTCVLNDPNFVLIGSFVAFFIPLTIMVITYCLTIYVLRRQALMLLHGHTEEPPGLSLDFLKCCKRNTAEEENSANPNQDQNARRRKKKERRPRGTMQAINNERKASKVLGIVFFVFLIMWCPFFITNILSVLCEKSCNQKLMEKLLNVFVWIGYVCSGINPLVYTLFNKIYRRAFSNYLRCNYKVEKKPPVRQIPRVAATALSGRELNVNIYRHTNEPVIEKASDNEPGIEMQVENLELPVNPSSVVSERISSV
Procedure: as §1

5-HT2B = 5-HT2B (Homo sapiens, UniProt P41595); assay: radioligand binding at 5-HT2B; conditions: 50 nM; radioligand [3H]mesulergine
Procedure: as §1

5-HT1A = molecular target: T2, 5-HT1A (Homo sapiens, UniProt P08908); assay: radioligand binding at 5-HT1A; conditions: 50 nM; radioligand [3H]8-OH-DPAT
T2 sequence (P08908 1-422): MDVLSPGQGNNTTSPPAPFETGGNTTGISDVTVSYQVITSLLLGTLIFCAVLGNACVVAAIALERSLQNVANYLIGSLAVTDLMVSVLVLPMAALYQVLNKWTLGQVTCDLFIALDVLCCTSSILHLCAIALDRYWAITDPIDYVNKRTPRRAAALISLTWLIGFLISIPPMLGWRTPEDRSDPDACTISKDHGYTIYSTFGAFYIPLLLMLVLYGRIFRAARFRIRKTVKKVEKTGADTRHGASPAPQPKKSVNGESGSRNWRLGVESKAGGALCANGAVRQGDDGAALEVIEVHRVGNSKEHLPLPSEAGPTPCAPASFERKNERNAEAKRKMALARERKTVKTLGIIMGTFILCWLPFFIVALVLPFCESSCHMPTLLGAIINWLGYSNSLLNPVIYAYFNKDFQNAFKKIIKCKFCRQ
Procedure: as §1

5-HT6 = 5-HT6 (Homo sapiens, UniProt P50406); assay: radioligand binding at 5-HT6; conditions: 50 nM; radioligand [3H]LSD
Procedure: as §1

5-HT2A = 5-HT2A (Homo sapiens, UniProt P28223); assay: radioligand binding at 5-HT2A; conditions: 50 nM; radioligand [3H]ketanserin
Procedure: as §1

Chain of 5-HT2B (P41595 whole entry, species assumed): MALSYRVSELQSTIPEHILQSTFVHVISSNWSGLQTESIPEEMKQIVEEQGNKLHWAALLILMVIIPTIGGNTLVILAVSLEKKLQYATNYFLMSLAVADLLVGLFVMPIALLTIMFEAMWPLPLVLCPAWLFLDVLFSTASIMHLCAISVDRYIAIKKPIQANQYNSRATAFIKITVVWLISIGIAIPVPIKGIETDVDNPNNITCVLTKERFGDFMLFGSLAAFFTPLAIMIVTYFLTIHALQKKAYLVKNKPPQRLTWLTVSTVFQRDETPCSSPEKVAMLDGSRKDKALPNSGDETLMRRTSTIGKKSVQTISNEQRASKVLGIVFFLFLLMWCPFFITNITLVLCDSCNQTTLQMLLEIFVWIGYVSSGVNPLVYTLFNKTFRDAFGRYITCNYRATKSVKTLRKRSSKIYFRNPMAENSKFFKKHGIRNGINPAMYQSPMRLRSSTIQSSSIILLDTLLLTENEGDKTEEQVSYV
Chain of Sigma 1 (Q99720 whole entry): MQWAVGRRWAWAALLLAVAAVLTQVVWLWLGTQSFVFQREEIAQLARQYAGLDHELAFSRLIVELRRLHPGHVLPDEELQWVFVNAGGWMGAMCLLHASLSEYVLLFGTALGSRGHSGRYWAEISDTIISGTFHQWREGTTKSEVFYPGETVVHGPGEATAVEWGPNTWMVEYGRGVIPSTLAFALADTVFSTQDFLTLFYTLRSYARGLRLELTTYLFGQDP
Chain of 5-HT6 (P50406 whole entry, species assumed): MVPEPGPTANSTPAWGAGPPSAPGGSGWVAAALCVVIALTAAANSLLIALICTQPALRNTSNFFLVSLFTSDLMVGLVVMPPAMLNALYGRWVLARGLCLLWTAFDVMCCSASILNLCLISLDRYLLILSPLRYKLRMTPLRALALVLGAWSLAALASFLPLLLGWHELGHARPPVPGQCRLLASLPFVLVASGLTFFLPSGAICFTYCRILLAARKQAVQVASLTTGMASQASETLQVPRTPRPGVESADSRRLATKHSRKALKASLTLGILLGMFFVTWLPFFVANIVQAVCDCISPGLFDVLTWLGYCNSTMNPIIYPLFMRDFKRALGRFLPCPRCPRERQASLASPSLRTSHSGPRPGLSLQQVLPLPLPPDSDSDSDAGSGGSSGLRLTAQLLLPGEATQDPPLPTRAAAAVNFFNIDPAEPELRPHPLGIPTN
Chain of 5-HT2A (P28223 whole entry): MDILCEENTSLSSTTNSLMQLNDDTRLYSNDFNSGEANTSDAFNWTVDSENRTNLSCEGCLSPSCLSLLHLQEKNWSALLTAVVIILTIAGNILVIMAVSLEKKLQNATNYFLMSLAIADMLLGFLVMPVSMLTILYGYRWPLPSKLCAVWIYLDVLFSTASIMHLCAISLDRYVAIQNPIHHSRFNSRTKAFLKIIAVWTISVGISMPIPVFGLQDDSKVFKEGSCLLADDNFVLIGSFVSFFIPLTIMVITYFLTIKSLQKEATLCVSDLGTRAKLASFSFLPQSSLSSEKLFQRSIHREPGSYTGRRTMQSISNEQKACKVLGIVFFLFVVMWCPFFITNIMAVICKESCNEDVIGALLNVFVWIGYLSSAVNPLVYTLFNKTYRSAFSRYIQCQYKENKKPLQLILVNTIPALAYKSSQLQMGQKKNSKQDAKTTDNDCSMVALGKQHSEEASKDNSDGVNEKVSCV
Chain of Sigma 2 (Q5BJF2 whole entry): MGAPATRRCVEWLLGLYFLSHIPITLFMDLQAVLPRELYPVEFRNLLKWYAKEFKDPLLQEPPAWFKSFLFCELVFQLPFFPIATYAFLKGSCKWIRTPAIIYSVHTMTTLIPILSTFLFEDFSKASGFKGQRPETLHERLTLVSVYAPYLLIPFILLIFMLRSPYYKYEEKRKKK
Chain of 5-HT7 (P34969 whole entry, species assumed): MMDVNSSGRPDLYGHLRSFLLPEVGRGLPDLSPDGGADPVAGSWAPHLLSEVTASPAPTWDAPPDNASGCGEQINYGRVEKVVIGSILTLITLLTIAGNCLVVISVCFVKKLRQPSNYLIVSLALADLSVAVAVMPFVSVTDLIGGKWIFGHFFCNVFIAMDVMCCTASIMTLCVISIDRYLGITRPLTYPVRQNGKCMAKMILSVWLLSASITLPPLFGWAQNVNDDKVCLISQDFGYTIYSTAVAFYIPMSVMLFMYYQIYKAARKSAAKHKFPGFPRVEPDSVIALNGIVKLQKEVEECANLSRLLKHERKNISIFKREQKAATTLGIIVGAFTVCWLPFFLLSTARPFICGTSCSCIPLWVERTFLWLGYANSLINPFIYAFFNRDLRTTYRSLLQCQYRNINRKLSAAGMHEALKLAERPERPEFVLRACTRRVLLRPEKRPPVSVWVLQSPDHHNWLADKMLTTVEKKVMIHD

CN(CCc1c[nH]c2ccccc12)CCc1c[nH]c2ccccc12 [Example 1, N-(2-(1H-indol-3-yl)ethyl)-2-(1H-indol-3-yl)-N-methylethan-1-amine]
inhibition at 0.5 µM (Sigma 1): 21.7%
inhibition at 0.05 µM (5-HT7): 79.7%
inhibition at 0.5 µM (Sigma 2): 26.1%
inhibition at 0.05 µM (5-HT2C): 72.8%
inhibition at 0.05 µM (5-HT2B): 96.8%
inhibition at 0.05 µM (5-HT1A): 70.9%
inhibition at 0.05 µM (5-HT6): 26.3%
inhibition at 0.05 µM (5-HT2A): 82.7%
